From ChEMBL document CHEMBL6177932 (J Med Chem, 2024)
Activity calls are given as the source filed them. No cut-off for these calls is given here.

Columns and labels:
4T1 = assay: Inhibition of class 1 HDAC in mouse 4T1 cells assessed as induction of H3K9 acetylation at 10 uM measured after 6 hrs by Western blot analysis; assay type: cell-based
[1] = biological target: Histone deacetylase 9 (Homo sapiens) (UniProt Q9UKV0); assay: Inhibition of human HDAC9 at 100 uM using Boc-Lys(trifluoroacetyl)-AMC as substrate by fluorogenic assay
[2] = biological target: T1, Vitamin D3 receptor (Mus musculus) (UniProt P48281); assay: Agonist activity at VDR in mouse B16-F10 cells assessed as induction of Cyp24a1 gene at 1 to 10 uM measured after 24 hrs by RT-qPCR analysis; assay type: cell-based; details: filed as agonist, dose 1-10 µM
T1 sequence (whole entry): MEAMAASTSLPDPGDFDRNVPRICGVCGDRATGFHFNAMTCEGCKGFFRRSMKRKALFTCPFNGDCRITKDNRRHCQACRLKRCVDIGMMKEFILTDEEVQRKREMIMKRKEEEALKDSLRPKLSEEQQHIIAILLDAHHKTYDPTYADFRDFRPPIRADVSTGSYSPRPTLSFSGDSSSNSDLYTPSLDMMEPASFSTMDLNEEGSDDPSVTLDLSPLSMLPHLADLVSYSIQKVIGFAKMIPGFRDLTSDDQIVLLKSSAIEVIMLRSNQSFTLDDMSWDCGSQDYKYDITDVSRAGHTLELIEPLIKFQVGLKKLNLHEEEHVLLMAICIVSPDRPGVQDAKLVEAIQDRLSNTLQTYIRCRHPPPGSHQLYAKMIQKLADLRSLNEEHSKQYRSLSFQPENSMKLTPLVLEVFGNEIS

B16-F10 = assay: Inhibition of class 1 HDAC in mouse B16-F10 cells assessed as induction of H3K27 acetylation at 10 uM measured after 6 hrs by Western blot analysis; assay type: cell-based
[3] = Toxicity in mouse B16-F10 cells implanted C57BL/6 mouse assessed as effect on body weight at 5 mg/kg, ip administered daily for 28 days; assay type: organism-based; details: in vivo, time 28 day
[4] = Toxicity in 4T1 cells implanted BALB/c mouse assessed as body weight loss at 1.5 to 5 mg/kg, ip administered daily for 18 days; assay type: organism-based; details: in vivo, 432 h, dose 1.5-5 mg/kg, time 18 day
Mus musculus [5] = assay: Immunomodulatory activity in mouse 4T1 cells implanted BALB/c mouse assessed as reduction in Ccl20 gene expression at 1.5 to 5 mg/kg, ip administered daily for 18 days by RT-qPCR analysis; assay type: functional, organism-based; details: dose 1.5-5 mg/kg, time 18.0 day
Mus musculus [6] = assay: Immunomodulatory activity in mouse 4T1 cells implanted BALB/c mouse assessed as reduction in Cxcl10 gene expression at 1.5 to 5 mg/kg, ip administered daily for 18 days by RT-qPCR analysis; assay type: functional, organism-based; details: dose 1.5-5 mg/kg, time 18.0 day
Mus musculus [7] = assay: Immunomodulatory activity in mouse 4T1 cells implanted BALB/c mouse assessed as induction of Il1a gene expression at 1.5 to 5 mg/kg, ip administered daily for 18 days by RT-qPCR analysis; assay type: functional, organism-based; details: dose 1.5-5 mg/kg, time 18.0 day
Mus musculus [8] = assay: Immunomodulatory activity in mouse 4T1 cells implanted BALB/c mouse assessed as reduction in M2 macrophage infiltration into tumors at 1.5 to 5 mg/kg, ip administered daily for 18 days by arginase 1 staining based immunofluorescence microscopy; assay type: functional, organism-based; details: dose 1.5-5 mg/kg, time 18.0 day
[9] = biological target: Vitamin D3 receptor (Mus musculus) (UniProt P48281); assay: In vivo agonist activity at VDR in mouse B16-F10 cells implanted C57BL/6 mouse assessed as induction of VDR gene in tumor at 5 mg/kg, ip administered 2 times at 24 hrs interval by RT-qPCR analysis; details: time 48.0 hrs

Chain of Histone deacetylase 9 (Homo sapiens) (Q9UKV0 whole entry): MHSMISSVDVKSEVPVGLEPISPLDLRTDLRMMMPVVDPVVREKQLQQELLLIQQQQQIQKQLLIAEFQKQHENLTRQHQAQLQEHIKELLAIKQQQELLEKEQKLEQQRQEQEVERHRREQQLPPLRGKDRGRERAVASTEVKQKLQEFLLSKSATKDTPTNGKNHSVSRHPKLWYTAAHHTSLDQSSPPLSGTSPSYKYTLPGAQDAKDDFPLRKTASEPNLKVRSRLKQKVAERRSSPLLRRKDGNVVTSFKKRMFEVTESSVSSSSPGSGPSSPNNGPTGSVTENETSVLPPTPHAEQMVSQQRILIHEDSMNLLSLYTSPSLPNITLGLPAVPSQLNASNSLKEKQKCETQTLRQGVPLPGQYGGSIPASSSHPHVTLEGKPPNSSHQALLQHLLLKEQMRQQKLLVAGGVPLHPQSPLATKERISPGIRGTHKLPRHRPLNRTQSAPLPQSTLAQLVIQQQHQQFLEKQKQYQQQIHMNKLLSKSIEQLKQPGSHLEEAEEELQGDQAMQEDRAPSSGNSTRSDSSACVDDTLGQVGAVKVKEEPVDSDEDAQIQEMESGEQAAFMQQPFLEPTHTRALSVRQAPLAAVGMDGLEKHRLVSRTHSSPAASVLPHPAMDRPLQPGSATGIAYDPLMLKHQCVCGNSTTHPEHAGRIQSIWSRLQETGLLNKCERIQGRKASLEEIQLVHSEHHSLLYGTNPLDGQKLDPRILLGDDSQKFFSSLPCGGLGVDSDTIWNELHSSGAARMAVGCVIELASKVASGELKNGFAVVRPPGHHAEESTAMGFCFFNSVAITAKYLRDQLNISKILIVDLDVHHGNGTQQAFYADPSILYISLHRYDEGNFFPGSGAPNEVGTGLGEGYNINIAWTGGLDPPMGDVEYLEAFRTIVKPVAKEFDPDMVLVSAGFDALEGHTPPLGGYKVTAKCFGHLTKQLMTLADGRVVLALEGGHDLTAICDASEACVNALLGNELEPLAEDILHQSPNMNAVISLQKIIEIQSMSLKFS

For `CCC(CC)(c1ccc(C(=O)NCCCCC(=O)NO)cc1)c1ccc(OCC(O)C(C)(C)C)c(C)n1` (stereo unspecified), the inhibition (4T1) was “Active”, the inhibition [1] was “Not active; No Or Very Limited Inhibition Was Observed” and the Activity [2] was “Active”. For the same compound, the inhibition (B16-F10) was “Active; Acetylation Was Comparable Or Greater Than Saha”, the Activity [3] was “Non-toxic” and the Activity [4] was “Non-toxic”. For the same compound, the Activity (Mus musculus [5]) was “Active”, the Activity (Mus musculus [6]) was “Active” and the Activity (Mus musculus [7]) was “Active”. For the same compound, the Activity (Mus musculus [8]) was “Active; Compound Was Most Efficacious At Reducing The M2 Macrophages” and the Activity [9] was “Active”.
